Values joined by “and” are separate entries in the source; they are usually repeats but may differ in a detail not shown here. Equal values may be shown once. Marks after values point to notes of the source that are not given here.
System: spinal nerve ligation model for neuropathic pain in rats
Experiment: Von Frey test for mechanical allodynia in the spinal nerve ligation (Chung) model of neuropathic pain
Assay type: in vivo, rat
Conditions: for mean Von Frey force required for withdrawal of left operated leg, Baseline: baseline before surgery and treatment
From the text: Experimental animals were male SD rats with a starting weight of 230-250 grams. Total number of animals were n=90 for surgery and n=60 after selection. The animals were caged in groups of 3 in a temperature and humidity controlled area. They were maintained on a 12 hr light/dark cycle and had ad libitum access to food and water. Rodent models of neuropathic pain are used to investigate the underlying mechanisms of pain associated with damage to peripheral nerves and to evaluate the efficacy of novel. Tactile sensitivity was measured 7-21 days post-surgery using von Frey monofilaments before and following treatment with gabapentin and other compounds (La Buda et al. 2005).
Neuropathic pain inducement was done by following principles of Chung induced model. The SD rats were anesthetized using ketamine/xylazine sodium. The rats were shaved and placed in prone position for surgery. The L5-L6 spinal nerves were surgically litigated. The rats were returned to their cages for recuperation and recovery under comfortable warm conditions using heat lamps.
After seven days of surgery a pre selection was performed. Animals that indicate signs of post operative pain were to be selected to proceed. Pain is detected by observing when one or more of the criteria are met as follows. Licking of the operated paw, accompanied by gentle biting or pulling on the nails with the mouth; placing the leg in the air; bearing weight on the side contra-lateral to the nerve injury; deformities of the hind paw and abnormal posture and walking; weakness of the left hind paw. […] However, the animal must be able to move its leg to ensure that the L4 spinal nerve is intact. If the animal cannot move its leg, it was excluded from the study.
Second level of selection of the rats was done on day 14 after the surgery. Von Frey test was performed on the preselected rats after day 7 on day 14. Using Von Frey methodology, animals with a pain threshold of ≦26 g for the operated leg will be included in the study. After this selection step, the animals were randomly placed into their experimental groups.
Blank, positive control and test compound: Blank was just the medium used for dissolving other compounds. The positive control was Gabapentin and the test compound was the final compound of formula 1 discussed in the instant disclosure. Three types of experimental groups were formed. Different types of chemicals such as Vehicle and Control were used to determine the efficacy of the chemicals as well comparison of the instant disclosed compound of formula 1, with a positive control was performed. The final compound of the instant disclosure was administered at 100 mg/kg and 150 mg/kg body weight as two different groups. The Gabapentin was administered at 150 mg/kg body weight.
On day 14 blank compound and final compound will be administered once daily starting on study day 14 through study day 21. Gabapentin, the positive control, will be administered 2 hours prior to pain testing on study days 14 and 21. The Von Frey test was be performed prior to final compound administration (pre-final compound injection) and after final compound administration at 0.5 hours, 2 hours and 4.5 hours post-final compound injection on study days 14 and 21. Additionally, if the Von Frey response for the operated leg of one of the six treatment groups is significant at 4.5 hours, all the groups will be tested again at 6.5 hours. In all instances, unless decided otherwise in the course of the study, all dosing solutions are applied as once a day intra peritoneal (IP) administration on each of the repeated dosing sessions. After the termination of the study the animals were euthanized.
Pain Response Evaluation: Pain response was evaluated using Von Frey test for mechanical allodynia. The Von Frey test for mechanical allodynia is based on applying short pulses of pressure that are not painful to a naïve animal. […]

[1] = 150 mg/kg IP, study days 14 and 21
[2] = Table 9 (day 14), male SD rats, mean
[3] = Table 10 (day 21), male SD rats
[4] = study day 14, before first dose, male SD rats
[5] = study day 14, 150 mg/kg IP, male SD rats
[6] = study day 14, 150 mg/kg IP, male SD rats, 150 mg/kg
[7] = study day 14, 150 mg/kg IP, male SD rats, listed as gabapentin, 150 mg/kg
[8] = study day 21, before that day's dose, KRB-5b once daily from day 14, gabapentin on days 14 and 21, 150 mg/kg IP
[9] = study day 21, 150 mg/kg IP, male SD rats
[10] = study day 21, 150 mg/kg IP, male SD rats, 150 mg/kg

SMILES: NCC1(CC(=O)O)CCCCC1 [Gabapentin, reference compound]
- analgesic effect on mechanical allodynia compared to Vehicle (in words) [1]: active only at 2 hours post dosing
- mean Von Frey force required for withdrawal of left operated leg, Baseline [2]: 60.00 g
- mean Von Frey force required for withdrawal of left operated leg, Baseline [3]: 60 g
- mean Von Frey force required for withdrawal of left operated leg, Pre-treatment [4]: 9.69 g
- mean Von Frey force required for withdrawal of left operated leg, 30 min Post treatment [5]: 9.85 g
- mean Von Frey force required for withdrawal of left operated leg, 6.5 hr Post treatment [5]: 10.69 g
- mean Von Frey force required for withdrawal of left operated leg, 2 hr Post treatment [6]: 35.69* g
- mean Von Frey force required for withdrawal of left operated leg, 4.5 hr Post treatment [6]: 10.69 g
- mean Von Frey force required for withdrawal of left operated leg, 2 hr Post treatment [7]: 35.69 ± 5.69 g
- mean Von Frey force required for withdrawal of left operated leg, 4.5 hr Post treatment [7]: 10.69 ± 1.42 g
- mean Von Frey force required for withdrawal of left operated leg, Pre-treatment [8]: 7.92 g
- mean Von Frey force required for withdrawal of left operated leg, 30 min Post treatment [9]: 9.85 g
- mean Von Frey force required for withdrawal of left operated leg, 6.5 hr Post treatment [9]: 9.62 g
- mean Von Frey force required for withdrawal of left operated leg, 2 hr Post treatment [10]: 48.69±4.96 g and 48.69* g
- mean Von Frey force required for withdrawal of left operated leg, 4.5 hr Post treatment [10]: 10.62 g
- mean Von Frey force required for withdrawal of left operated leg, 4.5 hr Post treatment (study day 21, 150 mg/kg IP, male SD rats, listed as gabapentin, 150 mg/kg): 10.62 ± 0.90 g

SMILES: CCN(CCOC(=O)CCCCC1CCSS1)CC(=O)Nc1c(C)cccc1C (stereo not shown) [KRB-5b]
- analgesic activity compared to gabapentin (in words) [1]: prolonged analgesic activity compared to gabapentin
- analgesic effect on mechanical allodynia compared to Vehicle (in words) [1]: effective as a pain analgesic item
- analgesic effect on mechanical allodynia compared to Vehicle (in words) (150 mg/kg IP, study days 14 and 21, listed as formula 1): effective in treating the spinal nerve ligation model for neuropathic pain in rats
- mean Von Frey force required for withdrawal of left operated leg, Baseline [2]: 60.00 g
- mean Von Frey force required for withdrawal of left operated leg, Baseline [3]: 60 g
- mean Von Frey force required for withdrawal of left operated leg, Pre-treatment [4]: 11.00 g
- mean Von Frey force required for withdrawal of left operated leg, 30 min Post treatment [5]: 19.60 g
- mean Von Frey force required for withdrawal of left operated leg, 6.5 hr Post treatment [5]: 16.40 g
- mean Von Frey force required for withdrawal of left operated leg, 2 hr Post treatment [6]: 39.00±7.19 g and 39.00* g
- mean Von Frey force required for withdrawal of left operated leg, 4.5 hr Post treatment [6]: 44.20±6.55 g and 44.20*# g
- mean Von Frey force required for withdrawal of left operated leg, Pre-treatment [8]: 15.40 g
- mean Von Frey force required for withdrawal of left operated leg, 30 min Post treatment [9]: 17.50 g
- mean Von Frey force required for withdrawal of left operated leg, 2 hr Post treatment [9]: 21.30# g
- mean Von Frey force required for withdrawal of left operated leg, 6.5 hr Post treatment [9]: 10.80 g
- mean Von Frey force required for withdrawal of left operated leg, 4.5 hr Post treatment [10]: 26.20±5.81 g and 26.20*# g

Source: US20120022147A1, “2, 6 XYLIDINE DERIVATIVES FOR THE TREATMENT OF PAIN” (KRISANI BIOSCIENCES (P) LTD, priority 2011, published 2012)
